Read-outs that look alike come from different tables or passages of the source. One block for each compound: values may come before it.
Assays:
[1] = test system: mice (α2 -adrenergic antagonism of clonidine); experiment: In vivo Antagonism of Clonidine-induced Anti-nociception (phenyl-p-quinone writhing); conditions: Mus musculus; for ED50: read-out: Antagonism of Clonidine Analgesia ED50 -p.o.
Method: (§1) The α2 -adrenergic antagonist activity is measured by three screening methods, described as follows:
(3) In vivo Antagonism of Clonidine-induced Anti-nociception
The intraperitoneal administration of phenyl-p-quinone (PPQ) to mice elicits a nociceptive response which consists of abdominal writhing and extension of the hind limbs. This writhing response is prevented in mice treated with clonidine. When an α2 -adrenergic antagonist is given prior to clonidine, the mice display the writhing response when PPQ is administered. To groups of thirty male mice for each experiment the test compound dissolved in 0.9% sodium chloride was administered either subcutaneously or orally. Clonidine (0.2 mg/kg) was administered orally when the test compound was given subcutaneously and subcutaneously when the test compound was administered orally. Twenty minutes after the administration of clonidine, PPQ (3 mg/kg) was given intraperitoneally. […] The number of mice that writhed at least three times during the five minute observation period was counted. The number of mice that writhed was scored for each dose of antagonist, and the percentage reversal of clonidine-induced anti-nociception (analgesia) was calculated by dividing the number of animals writhing by the total number of test animals and multiplying the quotient by 100.

[2] = molecular target: T1, α2 -adrenergic binding sites (receptor) (Rattus norvegicus, UniProt P22909); experiment: Tritiated Clonidine Receptor Binding Assay; conditions: for inhibition at 1 µM: at 1000 nM, read-out: Clonidine [^3 H] Binding % I.
T1 construct: to displace ^3 H-clonidine (an α2 -adrenergic agonist) from membranes of rat brain; from tissue; host or cells: rat cerebral cortex homogenate (membranes)
T1 sequence (P22909 1-465): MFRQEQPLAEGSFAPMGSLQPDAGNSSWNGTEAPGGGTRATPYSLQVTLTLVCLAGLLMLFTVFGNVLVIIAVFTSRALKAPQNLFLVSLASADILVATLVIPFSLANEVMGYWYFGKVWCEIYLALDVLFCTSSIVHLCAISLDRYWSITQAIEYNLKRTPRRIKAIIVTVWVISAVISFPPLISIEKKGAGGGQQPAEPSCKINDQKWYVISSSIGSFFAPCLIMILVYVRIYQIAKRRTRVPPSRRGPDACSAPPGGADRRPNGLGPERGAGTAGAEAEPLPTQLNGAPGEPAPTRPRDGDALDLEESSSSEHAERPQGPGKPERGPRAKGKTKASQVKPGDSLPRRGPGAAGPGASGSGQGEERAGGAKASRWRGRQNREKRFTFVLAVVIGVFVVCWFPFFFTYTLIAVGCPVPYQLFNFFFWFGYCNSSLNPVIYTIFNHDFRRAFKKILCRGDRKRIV
Method: as §1
(1) Tritiated Clonidine Receptor Binding Assay
Affinity is determined by assessing the ability of compounds to displace ^3 H-clonidine (an α2 -adrenergic agonist) from membranes of rat brain. Homogenates of rat cerebral cortex are incubated with 0.4 nM ^3 H-clonidine which binds to the α2 -adrenergic binding sites (receptor) present on the membranes of the homogenate. Compounds that bind to the α2 -adrenergic receptor, when added to the incubation mixture, will displace ^3 H-clonidine from its binding site, thereby diminishing the amount of bound radioactivity. The amount of ^3 H-clonidine still bound is quantitated by liquid scintillation spectrometry. The results are determined in terms of percent inhibition or as Ki values. Ki is a measure of the apparent affinity of the test substance for the α2 -adrenergic binding site, as determined by the method of Cheng and Prusoff, Biochemical Pharmacology 22, 3099 (1973).

[3] = molecular target: T2, α2 -adrenergic, isolated rat vas deferens (Rattus norvegicus, UniProt P22909); experiment: Vas Deferens Assay: antagonism of clonidine-induced inhibition of twitch height; assay type: biochemical
T2 construct: isolated, electrically stimulated rat vas deferens; from tissue; host or cells: isolated rat vas deferens
T2 sequence (P22909 1-465): T1 sequence (P22909 1-465)
Method: as §1
Activity is determined by assessing the ability of compounds to antagonize the inhibition of twitch height induced by clonidine in the isolated, electrically stimulated rat vas deferens. […] The tissue is then rinsed to remove clonidine and, when the twitch height has returned to normal, the test compound is added. The ability of clonidine to inhibit twitch height is then again determined, and the clonidine-induced inhibition in the presence of the test compound is used to calculate percent antagonism of clonidine. Results are recorded in terms of percent inhibition at the concentration of antagonist used, or as pA2 values, determined by the Schild method; cf. Tallarida and Murray, Manual of Pharmacologic Calculations, pp. 29-32 (Springer-Verlag, 1981).

[4] = test system: mice; experiment: Prevention of tetrabenazine-induced ptosis in mice; assay type: in vivo; conditions: Mus musculus, read-out: Tetrabenazine Reversal ED50
Source text: A further measure of potential andidepressant activity was obtained by determining the effectiveness of the compounds of the invention in prevention of tetrabenazine-induced ptosis in mice by the method described by Barnett et al., Int. J. Neuropharmacol. 8, 353-360 (1969). The results were expressed in terms of ED50 values (effective dose in 50% of the animals).

[5] = test system: α2 -adrenergic; experiment: α2 -adrenergic antagonist activity (general statement)
Method: On the other hand, the sympathomimetic activity characteristic of the latter group of compounds is not present in the compounds of the present invention.
The α2 -adrenergic antagonist activity is measured by three screening methods, described as follows: […]

[6] = test system: male rats; experiment: Diuretic activity in male rats in comparison with hydrochlorothiazide; assay type: in vivo, rat
[7] = test system: α2 -adrenergic; conditions: prior-art compounds; cited from earlier work
[8] = sc, 100 mg/kg s.c., read-out: Antagonism of Clonidine Analgesia % A.
[9] = 0.4 nM ^3 H-clonidine, rat cerebral cortex homogenate, read-out: Clonidine [^3 H] Binding Ki
[10] = Schild method, clonidine 10 nM, read-out: Rat Vas Deferens pA2 (converted)
[11] = po, 100 mg/kg p.o., read-out: Antagonism of Clonidine Analgesia % A.
[12] = rat, at 500 nM, clonidine 10 nM
[13] = 0.4 nM ^3 H-clonidine, rat cerebral cortex homogenate
[14] = sc, 30 mg/kg s.c., read-out: Antagonism of Clonidine Analgesia % A.

- Ki [2, 9]: 401 nM
SMILES: C[C@@H]1c2ccccc2CC[C@H]1CC1=NCCN1 (relative stereo) [15(d), trans-4,5-Dihydro-2-[(1,2,3,4-tetrahydro-1-methyl-2-naphthalenyl)methyl]-1H-imidazole]
- responders at 100 mg/kg [1, 8]: 30%

- Kb [3, 10]: 60.3 nM
- Ki [2, 9]: 135 nM
SMILES: C[C@@H]1c2ccccc2CC[C@@H]1CC1=NCCN1 (relative stereo) [Example 16, cis-4,5-Dihydro-2-[(1,2,3,4-tetrahydro-1-methyl-2-naphthalenyl)methyl]-1H-imidazole]

- Kb [3, 10]: 63.1 nM
- Ki [2, 9]: 11.9 nM
SMILES: CC1=C(CC2=NCCN2)CCc2ccccc21 [1(b), 2-[(3,4-Dihydro-1-methyl-2-naphthalenyl)methyl]-4,5-dihydro-1H-imidazole]
- ED50 [4]: 18 mg/kg
- responders at 100 mg/kg [1, 11]: 50%
- ED50 ([1]; po): 111 mg/kg

- Rat Vas Deferens % A. ([3]; at 500 nM, clonidine 10 nM, 0.5 µM): 3%
- inhibition at 0.5 µM [3, 12]: 2%
- inhibition at 1 µM [2, 13]: 60%
SMILES: CC1=C(CC2=NCCN2C)CCc2ccccc21 [4(b), 2-[(3,4-Dihydro-1-methyl-2-naphthalenyl)methyl]-4,5-dihydro-1-methyl-1H-imidazole]
- responders at 100 mg/kg [1, 8]: 20%

- Kb [3, 10]: 37.2 nM
- Ki [2, 9]: 32 nM
SMILES: CC(C1=Cc2ccccc2CC1)C1=NCCN1 (stereo not shown) [7(b), 2-[1-(3,4-Dihydro-2-naphthalenyl)ethyl]-4,5-dihydro-1H-imidazole]
- responders at 30 mg/kg [1, 14]: 70%

- inhibition at 0.5 µM [3, 12]: 1%
- inhibition at 1 µM [2, 13]: 53%
SMILES: COc1ccc2c(c1)CCC(CC1=NCCN1)=C2C [8(b), 2-[(3,4-Dihydro-6-methoxy-1-methyl-2-naphthalenyl)methyl]-4,5-dihydro-1H-imidazole]

- Kb [3, 10]: 19.5 nM
- Ki [2, 9]: 7 nM
SMILES: CC1=C(CC2=NCCN2)Cc2ccccc21 [9(b), 4,5-Dihydro-2-[(3-methyl-1H-inden-2-yl)methyl]-1H-imidazole]
- responders at 30 mg/kg ([1]; po, 30 mg/kg p.o., read-out: Antagonism of Clonidine Analgesia % A.): 10%

- Kb [3, 10]: 64.6 nM
- Ki [2, 9]: 76 nM
SMILES: C1=C(CC2=NCCN2)Cc2ccccc21 [10(b), 4,5-Dihydro-2-[(1H-inden-2-yl)methyl]-1H-imidazole]
- responders at 10 mg/kg ([1]; sc, 10 mg/kg s.c., read-out: Antagonism of Clonidine Analgesia % A.): 70%

SMILES: Cc1c(CC2=NCCN2)ccc2ccccc12 [17(e), 4,5-Dihydro-2-[(1-methyl-2-naphthalenyl)methyl]-1H-imidazole]
- ED50 [4]: 3 mg/kg
- ED50 ([1]; po): 27 mg/kg
- responders at 100 mg/kg [1, 8]: 70%
- Kb [3, 10]: 44.7 nM
- Ki [2, 9]: 7 nM

- Kb [3, 10]: 17.4 nM
- Ki [2, 9]: 28 nM
SMILES: C1=C(CC2=NCCN2)CCc2ccccc21 [Example 2(b), 2-[(3,4-Dihydro-2-naphthalenyl)methyl]-4,5-dihydro-1H-imidazole]
- ED50 [4]: 284 mg/kg
- ED50 ([1]; po): 33 mg/kg
- responders at 100 mg/kg [1, 8]: 90%

- Ki [2, 9]: 334 nM
SMILES: CC1=C(CC2=NCCCN2)CCc2ccccc21 [Example 3, 2-[(3,4-Dihydro-1-methyl-2-naphthalenyl)methyl]-1,4,5,6-tetrahydropyrimidine]

- inhibition at 0.5 µM [3, 12]: 2%
- Ki [2, 9]: 548 nM
SMILES: CCN1CCN=C1CC1=C(C)c2ccccc2CC1 [Example 5, 2-[(3,4-Dihydro-1-methyl-2-naphthalenyl)methyl]-1-ethyl-4,5-dihydro-1H-imidazole]
- responders at 100 mg/kg [1, 8]: 20%

- inhibition at 0.001 µM ([3]; rat, at 1 (head: Conc. (nM)), clonidine 10 nM): 3%
- inhibition at 1 µM [2, 13]: 59%
SMILES: CC1=C(CC2=NC(C)CN2)CCc2ccccc21 (stereo not shown) [Example 6, 2-[(3,4-Dihydro-1-methyl-2-naphthalenyl)methyl]-4,5-dihydro-4-methyl-1H-imidazole]
- responders at 100 mg/kg [1, 8]: 20%

- Kb [3, 10]: 120 nM
- Ki [2, 9]: 88 nM
SMILES: CC1=C(Cc2ncc[nH]2)CCc2ccccc21 [Example 11, 2-[(3,4-Dihydro-1-methyl-2-naphthalenyl)methyl]-1H-imidazole]
- responders at 30 mg/kg [1, 14]: 60%

SMILES: CC1=C(CC2=NCC(C)(C)CN2)CCc2ccccc21 [Example 12, 2-[(3,4-Dihydro-1-methyl-2-naphthalenyl)methyl]-1,4,5,6-tetrahydro-5,5-dimethylpyrimidine]
- α2 -adrenergic antagonist activity (in words) [5]: apparently devoid of any significant α2 -adrenergic antagonist properties
- increase of sodium excretion, activity relative to hydrochlorothiazide ([6]; 30 mg/kg oral): 38%
- increase of sodium excretion, activity relative to hydrochlorothiazide ([6]; 100 mg/kg oral): 94%
- diuretic activity (in words) ([6]; in comparison with hydrochlorothiazide): found to possess diuretic activity

SMILES: c1ccc2cc(CC3=NCCN3)ccc2c1 [Example 18, 4,5-Dihydro-2-(2-naphthalenylmethyl)-1H-imidazole]
- ED50 [4]: 27 mg/kg
- responders at 100 mg/kg [1, 11]: 80%
- ED50 ([1]; po): 53 mg/kg
- Kb [3]: 21.4 nM
- Ki [2]: 48 nM

SMILES: c1ccc2c(c1)CCCC2C1=NCCN1 (stereo not shown) [tetrahydrozoline, 2-(1,2,3,4-tetrahydro-1-naphthyl)-2-imidazoline, reference compound]
- α2 -adrenergic antagonist activity (in words, background section) [7]: do not possess α2 -adrenergic antagonist activity
- α2 -adrenergic antagonist activity (in words) [5]: essentially devoid of such activity

Source: US4540705A, “Antidepressant imidazolines and related compounds” (priority 1983, dated 1985)
